# Measured values as given in PMC6500773 (Psychopharmacology, 2018).
# Read-outs that look alike come from different tables or passages of the source.
# Key:
# hSERT [1] = target: T1, hSERT (Homo sapiens, UniProt P31645); assay: Drug-induced release of preloaded [3H]5-HT from HEK-hSERT cells; assay type: cell-based; conditions: for releasing efficacy at hSERT: [3H]5-HT release; for % maximum release ± sem, hSERT [3H]5-HT: relative to maximal AUC induced by METH (0.3–1 mM)
# hDAT [2] = target: T2, hDAT (Homo sapiens, UniProt Q01959); assay: Inhibition of [125I]RTI-55 binding, HEK-hDAT membranes
# hNET [3] = target: T3, hNET (Homo sapiens, UniProt P23975); assay: biochemical; assay type: binding
# hDAT [4] = target: T2, hDAT; assay: Drug-induced release of preloaded [3H]DA from HEK-hDAT cells; assay type: cell-based; conditions: for % maximum release ± sem, hDAT [3H]DA: relative to maximal AUC induced by METH (1 or 10 μM)
# hDAT [5] = target: T2, hDAT; assay: Inhibition of [3H]DA uptake by HEK-hDAT cells; assay type: cell-based; conditions: for Ratio DAT/SERT: 1/(DAT IC50) divided by 1/(SERT IC50), uptake, higher = more DAT selective
# hNET [6] = target: T3, hNET; assay: cell-based
# hNET [7] = target: T3, hNET; assay: Drug-induced release of preloaded [3H]NE from HEK-hNET cells; assay type: cell-based; conditions: for EC50: read-out: Drug-induced release of [3H]neurotransmitter EC50 ± sem, hNET [3H]NE, HEK-hNET cells; for % maximum release ± sem, hNET [3H]NE: relative to maximal AUC induced by METH (0.3 or 1 μM)
# hSERT [8] = target: T1, hSERT; assay: Inhibition of [125I]RTI-55 binding, HEK-hSERT membranes
# hSERT [9] = target: T1, hSERT; assay: Inhibition of [3H]5-HT uptake by HEK-hSERT cells; assay type: cell-based
# [10] = read-out: Inhibition of [125I]RTI-55 binding Ki ± sem, hDAT, HEK-hDAT membranes
# [11] = read-out: Inhibition of [125I]RTI-55 binding Ki ± sem, hNET, HEK-hNET membranes
# [12] = read-out: Inhibition of [3H]neurotransmitter uptake IC50 ± sem, hNET [3H]NE, HEK-hNET cells
# T2 sequence (Q01959 whole entry): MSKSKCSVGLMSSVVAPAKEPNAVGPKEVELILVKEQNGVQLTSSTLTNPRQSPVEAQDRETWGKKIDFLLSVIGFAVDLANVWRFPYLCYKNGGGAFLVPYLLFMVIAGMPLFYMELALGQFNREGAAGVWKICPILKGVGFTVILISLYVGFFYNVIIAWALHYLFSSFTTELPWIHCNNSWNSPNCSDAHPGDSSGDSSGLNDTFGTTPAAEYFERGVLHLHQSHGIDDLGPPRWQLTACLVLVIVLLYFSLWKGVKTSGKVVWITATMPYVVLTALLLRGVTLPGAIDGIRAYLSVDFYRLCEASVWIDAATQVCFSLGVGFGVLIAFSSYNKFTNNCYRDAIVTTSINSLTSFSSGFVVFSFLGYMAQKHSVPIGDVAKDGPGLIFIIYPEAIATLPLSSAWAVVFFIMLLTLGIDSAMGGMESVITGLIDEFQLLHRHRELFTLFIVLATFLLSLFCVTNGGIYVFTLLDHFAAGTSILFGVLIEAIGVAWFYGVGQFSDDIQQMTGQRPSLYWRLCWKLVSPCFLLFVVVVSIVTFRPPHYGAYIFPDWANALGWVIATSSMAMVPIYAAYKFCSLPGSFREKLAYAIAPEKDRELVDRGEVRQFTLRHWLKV
# T3 sequence (P23975 whole entry): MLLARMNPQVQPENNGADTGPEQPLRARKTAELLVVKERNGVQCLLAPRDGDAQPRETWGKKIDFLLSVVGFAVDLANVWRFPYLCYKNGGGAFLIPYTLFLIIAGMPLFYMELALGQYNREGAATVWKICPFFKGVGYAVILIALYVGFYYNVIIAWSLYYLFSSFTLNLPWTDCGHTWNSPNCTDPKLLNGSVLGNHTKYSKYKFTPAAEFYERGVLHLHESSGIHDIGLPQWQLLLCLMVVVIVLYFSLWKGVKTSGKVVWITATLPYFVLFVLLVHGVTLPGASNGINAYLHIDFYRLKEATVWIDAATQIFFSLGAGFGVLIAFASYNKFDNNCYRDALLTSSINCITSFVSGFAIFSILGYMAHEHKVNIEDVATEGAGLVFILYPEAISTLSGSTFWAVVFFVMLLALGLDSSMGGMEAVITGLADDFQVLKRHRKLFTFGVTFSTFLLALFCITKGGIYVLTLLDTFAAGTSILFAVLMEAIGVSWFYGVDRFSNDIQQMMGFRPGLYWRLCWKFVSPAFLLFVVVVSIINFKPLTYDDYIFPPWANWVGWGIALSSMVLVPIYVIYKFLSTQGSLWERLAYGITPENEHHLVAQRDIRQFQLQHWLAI
# T1 sequence (P31645 whole entry): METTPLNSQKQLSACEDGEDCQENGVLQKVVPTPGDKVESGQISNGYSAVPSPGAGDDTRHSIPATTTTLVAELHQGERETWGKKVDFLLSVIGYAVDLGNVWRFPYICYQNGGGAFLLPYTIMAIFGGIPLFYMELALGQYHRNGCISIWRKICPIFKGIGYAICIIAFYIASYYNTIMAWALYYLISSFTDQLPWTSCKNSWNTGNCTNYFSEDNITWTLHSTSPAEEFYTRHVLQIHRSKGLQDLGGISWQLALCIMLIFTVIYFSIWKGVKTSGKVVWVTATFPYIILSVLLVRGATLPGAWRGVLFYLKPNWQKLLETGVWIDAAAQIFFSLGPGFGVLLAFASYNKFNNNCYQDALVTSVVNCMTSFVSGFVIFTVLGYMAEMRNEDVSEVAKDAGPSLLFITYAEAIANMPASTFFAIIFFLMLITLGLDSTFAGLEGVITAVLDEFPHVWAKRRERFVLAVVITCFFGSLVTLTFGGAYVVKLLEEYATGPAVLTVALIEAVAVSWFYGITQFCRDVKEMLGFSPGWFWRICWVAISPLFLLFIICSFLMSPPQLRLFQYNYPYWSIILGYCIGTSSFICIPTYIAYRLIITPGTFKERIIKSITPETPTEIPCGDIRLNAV
SMILES,"% maximum release ± sem, hSERT [3H]5-HT (hSERT [1])",Ki (hDAT [2]; [10]),Ki (hNET [3]; [11]),"% maximum release ± sem, hDAT [3H]DA (hDAT [4])",Ratio DAT/SERT (hDAT [5]),IC50 (hNET [6]; [12]),EC50 (hNET [7]),"% maximum release ± sem, hNET [3H]NE (hNET [7])",also measured
"CNC(C)Cc1ccc2ccoc2c1 (stereo not drawn) [6-MAPB, N,α-dimethyl-6-benzofuranethanamine]",107.0 ± 2.3%,599 ± 9.9 nM,1480 ± 270 nM,40.6 ± 8.7%,9.5,33.1 ± 2 nM,640 ± 210 nM,60 ± 11%,releasing efficacy at hSERT (hSERT [1]): fully efficacious
"CCC(C(=O)c1ccc2c(c1)OCO2)N(C)C (stereo not drawn) [Dibutylone, bk-DMBDB]",,581 ± 76 nM,8400 ± 2100 nM,,>32,923 ± 44 nM,,,
"CC(C(=O)c1ccc2c(c1)OCO2)N(C)C (stereo not drawn) [Dimethylone, bk-MDDMA]",<1%,4210 ± 270 nM,> 10000 nM,<1%,>4.1,4200 ± 880 nM,> 10000 nM,9.9 ± 2.2%,
"CNC(C)C(=O)c1ccccc1 (stereo not drawn) [MCAT, methcathinone, reference compound]",65.0 ± 0.6%,7520 ± 990 nM,5960 ± 610 nM,79.0 ± 3.2%,130,45.2 ± 4.2 nM,400 ± 120 nM,75 ± 10%,fold lower release potency at SERT (hSERT [1]; compared to release potency at NET and DAT): 50 fold
"CCCC(NCC)C(=O)c1ccc2c(c1)OCO2 (stereo not drawn) [N-Et pentylone, N-ethyl pentylone]",7.2 ± 1.4%,102 ± 15 nM,2380 ± 620 nM,<1%,8.4,114 ± 29 nM,,15.6 ± 8.4%,fold increase in hDAT/hSERT selectivity (hDAT [5]; compared to pentylone): ~ 2 fold
"CCCCC(NCC)C(=O)c1ccccc1 (stereo not drawn) [N-Et-Hexedrone, α-ethylaminohexanophenone]",,171 ± 38 nM,1260 ± 43 nM,,100,97.8 ± 8.3 nM,,,
"CCCNC(CCC)C(=O)c1ccccc1 (stereo not drawn) [N-propyl pentedrone, α-propylaminopentiophenone]",,389 ± 67 nM,3760 ± 820 nM,,330,306 ± 79 nM,,,
"CCCNC(C)C(=O)c1ccc2c(c1)OCO2 (stereo not drawn) [PRONE, 3,4-methylenedioxy-N-propylcathinone]",,6800 ± 1900 nM,22500 ± 8500 nM,,0.95,6040 ± 890 nM,,,
"CCCCCCC(C(=O)c1ccccc1)N1CCCC1 (stereo not drawn) [PV9, 1-phenyl-2-(pyrrolidin-1-yl)octan-1-one]",,,,,>150,,,,Ki (hDAT [2]): 18 ± 3.7 nM; Ki (hSERT [8]): 2860 ± 430 nM; Ki (hNET [3]): 468 ± 33 nM; IC50 (hSERT [9]): > 7400 nM; IC50 (hDAT [5]): 50.2 ± 6.6 nM
"CCCC(Cc1ccccc1)N1CCCC1 (stereo not drawn) [Prolintane, 1-[1-(phenylmethyl)butyl]-pyrrolidine]",,,,,11,,,,Ki (hDAT [2]): 219 ± 19 nM; Ki (hSERT [8]): 2520 ± 330 nM; Ki (hNET [3]): 560 ± 190 nM; IC50 (hSERT [9]): 1110 ± 350 nM; fold higher hSERT uptake potency (hSERT [9]; compared to 4-F-α-PVP): 40 fold; IC50 (hDAT [5]): 100 ± 21 nM; IC50 (hNET [6]): 46 ± 6.8 nM
"CCCC(C(=O)c1ccc2c(c1)CCCC2)N1CCCC1 (stereo not drawn) [TH-PVP, 3’,4’-tetramethylene-α-pyrrolidinovalerophenone]",<1%,3090 ± 300 nM,6950 ± 340 nM,<1%,0.087,2130 ± 81 nM,> 10000 nM,<1%,releasing efficacy at hSERT (hSERT [1]): minimal to no releasing efficacy; selectivity for SERT over DAT (uptake potency) (hSERT [9]; uptake inhibition potencies): 12 fold; releasing efficacy at hDAT (hDAT [4]; [3H]DA release): minimal to no releasing efficacy; releasing efficacy at hNET (hNET [7]; [3H]NE release): minimal to no releasing efficacy
"CCCC(C(=O)c1ccc2c(c1)OCO2)N(C)C (stereo not drawn) [bk-DMBDP, N,N-dimethylpentylone]",,354 ± 73 nM,2000 ± 140 nM,,11,212 ± 68 nM,,,
"CCCC(NCC)C(=O)c1ccccc1 (stereo not drawn) [α-EPP, α-ethylaminopentiophenone]",,182 ± 22 nM,700 ± 180 nM,,64,101 ± 24 nM,,,
